Experimental data published in patent publication US7468391B2, “Methods for treating retinoid responsive disorders using selective inhibitors of CYP26A and CYP26B” (Allergan, Inc., priority 2003, dated 2008).

Key:
CYP26A (P450RAI-1) = molecular target: T1, CYP26A (P450RAI-1) (Homo sapiens, UniProt O43174); assay: Cell-based inhibition of RA metabolism in CYP26A stably transfected HeLa cells; details: stably transfected HeLa cells, [3H]-RA, 3 hours at 37° C.; read-out: P450RAI-1 Whole cell IC50
T1 construct: expressed in transfected cells; host or cells: HeLa
T1 sequence (O43174 1-497): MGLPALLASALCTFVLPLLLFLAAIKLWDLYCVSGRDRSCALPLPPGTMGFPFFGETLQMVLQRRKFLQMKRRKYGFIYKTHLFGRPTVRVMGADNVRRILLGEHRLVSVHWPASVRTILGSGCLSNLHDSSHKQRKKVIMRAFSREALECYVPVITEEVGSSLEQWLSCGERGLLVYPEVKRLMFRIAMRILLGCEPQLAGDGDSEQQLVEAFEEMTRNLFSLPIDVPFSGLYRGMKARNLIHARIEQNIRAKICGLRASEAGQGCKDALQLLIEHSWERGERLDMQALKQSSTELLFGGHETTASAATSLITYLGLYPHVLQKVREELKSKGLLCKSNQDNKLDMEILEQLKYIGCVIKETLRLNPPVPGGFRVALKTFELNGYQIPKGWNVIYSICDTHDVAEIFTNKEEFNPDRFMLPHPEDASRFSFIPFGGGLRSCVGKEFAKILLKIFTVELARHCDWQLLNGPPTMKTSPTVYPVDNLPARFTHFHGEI
Method in brief: (§1)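 Stably transfected HeLa cells (5×10^5/well) in MEM with 10% FBS and 0.05 μCi [3H]-RA, compounds at 10, 1 or 0.1 μM final, 3 h at 37° C. Retinoids extracted by modified Bligh-Dyer (methylene chloride); aqueous radioactivity counted; ID50 for 50% inhibition of RA metabolism derived from log-transformed data.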

CYP26B (P450RAI-2) = molecular target: T2, CYP26B (P450RAI-2) (Homo sapiens, UniProt Q9NR63); assay: Cell-based inhibition of RA metabolism in CYP26B stably transfected HeLa cells; details: stably transfected HeLa cells, [3H]-RA, 3 hours at 37° C.; read-out: P450RAI-2 Whole cell IC50
T2 construct: expressed in transfected cells; host or cells: HeLa
T2 sequence (Q9NR63 1-512): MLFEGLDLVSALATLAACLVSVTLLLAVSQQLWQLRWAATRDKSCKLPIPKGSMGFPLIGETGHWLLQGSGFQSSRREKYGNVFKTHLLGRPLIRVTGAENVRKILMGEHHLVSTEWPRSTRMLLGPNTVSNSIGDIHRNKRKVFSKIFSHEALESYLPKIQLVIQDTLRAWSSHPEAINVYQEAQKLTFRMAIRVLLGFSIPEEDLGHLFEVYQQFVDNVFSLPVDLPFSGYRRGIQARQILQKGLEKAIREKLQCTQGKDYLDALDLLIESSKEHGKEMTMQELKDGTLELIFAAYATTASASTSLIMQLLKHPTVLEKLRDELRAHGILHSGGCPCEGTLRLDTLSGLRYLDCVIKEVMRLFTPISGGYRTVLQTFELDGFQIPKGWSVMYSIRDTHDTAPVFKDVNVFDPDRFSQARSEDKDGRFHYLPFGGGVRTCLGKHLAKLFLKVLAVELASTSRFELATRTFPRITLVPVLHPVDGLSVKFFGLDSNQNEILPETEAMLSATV
Method in brief: as §1

RAR β [1] = molecular target: T3, RAR β (Homo sapiens, UniProt P10826); assay: RAR β EC50/(efficacy); assay type: cell-based; details: for RAR β (EFFICACY): value in brackets of cell EC50/(EFFICACY)/Kd; for EC50: first item of cell EC50/(EFFICACY)/Kd
T3 sequence (P10826 1-455): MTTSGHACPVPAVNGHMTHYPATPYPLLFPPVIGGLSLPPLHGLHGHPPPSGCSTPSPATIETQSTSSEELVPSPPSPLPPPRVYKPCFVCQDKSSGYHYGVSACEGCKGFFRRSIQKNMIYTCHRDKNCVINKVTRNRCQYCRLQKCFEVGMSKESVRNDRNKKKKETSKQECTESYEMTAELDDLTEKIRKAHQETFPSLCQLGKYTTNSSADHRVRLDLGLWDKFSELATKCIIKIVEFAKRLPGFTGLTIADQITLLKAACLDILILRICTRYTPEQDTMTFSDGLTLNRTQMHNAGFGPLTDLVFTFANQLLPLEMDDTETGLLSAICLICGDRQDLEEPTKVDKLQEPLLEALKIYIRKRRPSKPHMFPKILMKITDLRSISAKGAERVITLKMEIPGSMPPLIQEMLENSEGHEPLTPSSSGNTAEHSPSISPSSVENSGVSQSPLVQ

RAR γ [2] = molecular target: T4, RAR γ (Homo sapiens, UniProt P13631); assay: RAR γ EC50/(efficacy); assay type: cell-based; details: for RAR γ (EFFICACY): value in brackets of cell EC50/(EFFICACY)/Kd; for EC50: first item of cell EC50/(EFFICACY)/Kd
T4 sequence (P13631 1-454): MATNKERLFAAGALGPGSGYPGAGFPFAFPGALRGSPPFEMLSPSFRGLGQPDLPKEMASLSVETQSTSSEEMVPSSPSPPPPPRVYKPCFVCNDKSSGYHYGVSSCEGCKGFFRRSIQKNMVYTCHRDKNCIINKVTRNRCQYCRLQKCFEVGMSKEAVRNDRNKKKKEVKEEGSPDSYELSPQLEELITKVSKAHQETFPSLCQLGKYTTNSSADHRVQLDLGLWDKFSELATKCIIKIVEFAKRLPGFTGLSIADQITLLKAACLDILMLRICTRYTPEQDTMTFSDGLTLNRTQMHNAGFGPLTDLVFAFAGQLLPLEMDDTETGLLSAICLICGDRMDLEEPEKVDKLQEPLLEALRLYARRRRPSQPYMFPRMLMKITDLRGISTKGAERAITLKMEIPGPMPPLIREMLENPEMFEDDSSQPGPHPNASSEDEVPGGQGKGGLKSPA

RAR α [3] = molecular target: T5, RAR α (Homo sapiens, UniProt P10276); assay: RAR α Kd; assay type: binding; details: last item of cell EC50/(EFFICACY)/Kd
T5 sequence (P10276 1-462): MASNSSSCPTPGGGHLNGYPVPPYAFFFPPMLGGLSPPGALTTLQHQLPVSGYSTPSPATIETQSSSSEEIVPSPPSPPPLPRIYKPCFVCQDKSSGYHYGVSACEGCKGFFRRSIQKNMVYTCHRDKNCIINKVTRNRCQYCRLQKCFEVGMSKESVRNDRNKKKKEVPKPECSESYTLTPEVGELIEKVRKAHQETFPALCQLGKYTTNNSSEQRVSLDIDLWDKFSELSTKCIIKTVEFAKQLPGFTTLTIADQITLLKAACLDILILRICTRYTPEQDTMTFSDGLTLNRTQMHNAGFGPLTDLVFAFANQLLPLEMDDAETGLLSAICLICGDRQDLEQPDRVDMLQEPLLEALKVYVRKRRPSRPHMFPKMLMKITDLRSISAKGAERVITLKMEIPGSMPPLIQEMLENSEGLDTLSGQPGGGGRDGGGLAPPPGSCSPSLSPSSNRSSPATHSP

RAR β [4] = molecular target: T3, RAR β; assay: RAR β Kd; assay type: binding; details: last item of cell EC50/(EFFICACY)/Kd
RAR γ [5] = molecular target: T4, RAR γ; assay: RAR γ Kd; assay type: binding; details: last item of cell EC50/(EFFICACY)/Kd
RAR α [6] = molecular target: T5, RAR α; assay: RAR α EC50/(efficacy); assay type: cell-based; details: for EC50: first item of cell EC50/(EFFICACY)/Kd; for RAR α (EFFICACY): value in brackets of cell EC50/(EFFICACY)/Kd

Structure (SMILES)	IC50 (CYP26A (P450RAI-1)) [nM]	IC50 (CYP26B (P450RAI-2)) [nM]	RAR β (EFFICACY) (RAR β [1])	RAR γ (EFFICACY) (RAR γ [2])	Kd (RAR α [3]) [nM]	Kd (RAR β [4]) [nM]	Kd (RAR γ [5]) [nM]	EC50 (RAR α [6]) [nM]	RAR α (EFFICACY) (RAR α [6])	EC50 (RAR β [1]) [nM]	EC50 (RAR γ [2]) [nM]
Cc1ccc(C(C)(C)C)cc1C#Cc1ccc(/C=C/C(=O)O)cc1 [Compound 36, 3-[4-(5-tert-Butyl-2-methyl-phenylethynyl)-phenyl]-acrylic acid]	> 10000	400	40	15	> 10000	3520	2080				
C=Cc1c(C)c(C#Cc2ccc(CC(=O)O)cc2)cc(C(C)(C)C)c1OC(C)C [Compound 46, [4-(5-tert-Butyl-4-isopropoxy-2-methyl-3-vinyl-phenylethynyl)-phenyl]-acetic acid]	700	> 10000	75	65	85	45	215	65	67	10	7
CC(C)OC(=O)c1ccc(C#Cc2ccc(CC(=O)O)cc2)cc1CN(C)C1CC1 [Compound 38, 4-(4-Carboxymethyl-phenylethynyl)-2-[(cyclopropyl-methyl-amino)-methyl]-benzoic acid isopropyl ester]	4000	> 10000			> 10000	> 10000	> 10000		10		
CCC1(CC)CC(C)(C)c2cc(C#Cc3ccc(C(C)(C)C(=O)O)cc3)cc(C(C)C)c2O1 [Compound 14, 2-[4-(2,2-Diethyl-8-isopropyl-4,4-dimethyl-chroman-6-ylethynyl)-phenyl]-2-methyl-propionic acid]	700	> 10000	10	25	5170	7400	> 10000				
CC(C)(C)c1cccc(C#Cc2ccc(/C=C/C(=O)O)cc2)c1 [Compound 35, (E)-3-[4-(3-tert-Butyl-phenylethynyl)-phenyl]-acrylic acid]	> 10000	500	80	48	1930	2090	2890			16	126
C#Cc1c(C)c(C#Cc2ccc(CC(=O)O)cc2)cc(C(C)(C)C)c1OC(C)C [Compound 45, [4-(5-tert-Butyl-3-ethynyl-4-isopropoxy-2-methyl-phenylethynyl)-phenyl]-acetic acid]	700	> 10000	55	68	9.9	76	255	118	52	18	31
CCOC(=O)C1=CCC(C)(C)c2cc(C#Cc3ccc(CC(=O)O)c(F)c3)ccc21 [Compound 60, 6-(4-Carboxymethyl-3-fluoro-phenylethynyl)-4,4-dimethyl-3,4-dihydro-naphthalene-1-carboxylic acid ethyl ester]	60	2600	60	15	6320	3960	8990				
C=Cc1cc(C#Cc2ccc(CC(=O)O)cc2)cc2c1C(N(C)C1CC1)CCC2(C)C (stereo not shown) [Compound 23, {4-[5-(Cyclopropyl-methyl-amino)-8,8-dimethyl-4-vinyl-5,6,7,8-tetrahydro-naphthalen-2-ylethynyl]-phenyl}-acetic acid]	8	500	40	35	> 10000	> 10000	> 10000				
CCOC(=O)C1CCC(C)(C)c2cc(C#Cc3ccc(CC(=O)O)cc3)c(C)cc21 (stereo not shown) [Compound 57, 6-(4-Carboxymethyl-phenylethynyl)-4,4,7-trimethyl-1,2,3,4-tetrahydro-naphthalene-1-carboxylic acid ethyl ester]	400		50	35	6030	4980	7740				
CCOC(=O)C1=CCC(C)(C)c2cc(C#Cc3ccc(CC(=O)O)cc3)c(C)cc21 [Compound 55, 6-(4-Carboxymethyl-phenylethynyl)-4,4,7-trimethyl-3,4-dihydro-naphthalene-1-carboxylic acid ethyl ester]	1400	> 10000	35	30	> 10000	> 10000	> 10000				
CC1(C)CC2(CC2)Oc2c(C3CC3)cc(NC(=O)Nc3ccc(C(=O)O)cc3)cc21 [Compound 5, 4-{3-[8-Cyclopropyl-3,3-dihydro-4,4-dimethylspiro(2H-1-benzopyran-2,2′-cyclopropane)-6-yl]-ureido}-benzoic acid]	> 10000	450	55	15	> 10000	4540	> 10000			320	
CC1(C)CC2(CC2)Oc2c(C3CC3)cc(C#Cc3ccc(/C=C(\Cl)C(=O)O)cc3)cc21 [Compound 4]	120	> 10000	20	15	> 10000	> 10000	> 10000				
C/C(=C\c1ccc(C#Cc2cc(C3CC3)c3c(c2)C(C)(C)CC2(CC2)O3)cc1)C(=O)O [Compound 3]	250	> 10000	15	10	> 10000	520	6040				
